pIC50: −log10 of the molar value. Some results are limits rather than exact numbers.

Assay [1] concerns the target T1, catalytic domain (JH1, amino acids 826-1132) of human JAK2 (Homo sapiens, UniProt O60674).
T1 construct: catalytic domain (JH1, amino acids 826-1132) of human JAK2; FLAG (N); purchased Carna Biosciences 08-445-20N; host or cells: baculovirus expression system
Kind of assay: JAK2 LanthaScreen JH1 Binding Assay. Conditions: JAK2 JH1 (1.5 nM), 50 nM fluorescent JAK2-JH1 tracer, 2 hours at 25° C.; read-out: JH1 BIND. The protocol:
Example A. JAK2 LanthaScreen JH1 Binding Assay
JAK2 JH1 binding assay utilizes catalytic domain (JH1, amino acids 826-1132) of human JAK2 expressed as N-terminal FLAG-tagged, biotinylated protein in a baculovirus expression system (Carna Biosciences, Product #08-445-20N). The assay was conducted in black 384-well polystyrene plates in a final reaction volume of 20 μL. JAK2 JH1 (1.5 nM) was incubated with compounds (100 nL serially diluted in DMSO) in the presence of 50 nM fluorescent JAK2-JH1 tracer and 0.5 nM Streptavidin-Tb cryptate (Cisbio Part #610SATLB) in assay buffer (50 mM Tris, pH=7.5, 10 mM MgCl2, 0.01% Brij-35, 0.1% BSA, 1 mM EGTA, 5% Glycerol and 5 mM DTT). Non-specific binding was accessed in the presence of 2 mM ATP. After incubation for 2 hours at 25° C., LanthaScreen signals were read on a PHERAstar FS plate reader (BMG LABTECH). Data was analyzed with IDBS XLfit and GraphPad Prism 5.0 software using a four parameter dose response curve to determine IC50 for each compound.
A general note: TR-FRET usually uses a lanthanide donor and a delayed reading to cut background.

Assay [2] has as its target T2, pseudo-kinase domain (JH2, amino-acids 536-812 with 3 surface mutations W659A, W777A, F794H) of human Wild Type JAK2 (Homo sapiens, UniProt O60674, F794H/W659A/W777A).
T2 construct: pseudo-kinase domain (JH2, amino-acids 536-812 with 3 surface mutations W659A, W777A, F794H); His (C); Avi (biotinylated) (C); purchased BPS Bioscience 79463; host or cells: baculovirus expression system
Kind of assay: JAK2 LanthaScreen JH2-WT Binding Assay. Conditions: JAK2 JH2-WT (0.145 nM), 50 nM Fluorescent JAK2-JH2 Tracer, 1 hour at 25° C.; read-out: JH2 BIND WT. As for the experimental part: Example B. JAK2 LanthaScreen JH2-WT Binding Assay
(§1) JAK2 JH2-WT binding assay utilizes pseudo-kinase domain (JH2, amino-acids 536-812 with 3 surface mutations W659A, W777A, F794H) of human Wild Type JAK2 expressed as C-terminal His-Avi-tagged, biotinylated protein in a baculovirus expression system (BPS Bioscience, Catalog #79463). The assay was conducted in black 384-well polystyrene plates in a final reaction volume of 20 μL. JAK2 JH2-WT (0.145 nM) was incubated with compounds (100 nL serially diluted in DMSO) in the presence of 50 nM Fluorescent JAK2-JH2 Tracer (MedChem Express Catalog #HY-102055) and 0.25 nM Streptavidin-Tb cryptate (Cisbio Part #610SATLB) in assay buffer (50 mM Tris, pH=7.5, 10 mM MgCl2, 0.01% Brij-35, 0.1% BSA, 1 mM EGTA, 5% Glycerol and 5 mM DTT). Non-specific binding was accessed in the presence of 2 mM ATP. After incubation for 1 hour at 25° C., LanthaScreen signals were read on a PHERAstar FS plate reader (BMG LABTECH). Data was analyzed with IDBS XLfit and GraphPad Prism 5.0 software using a four parameter dose response curve to determine IC50 for each compound.

In assay [3] the target is T3, pseudo-kinase domain (JH2, amino-acids 536-812 with 3 surface mutations W659A, W777A, F794H) of human V617F mutant JAK2 (Homo sapiens, UniProt O60674, F794H/V617F/W659A/W777A).
T3 construct: pseudo-kinase domain (JH2, amino-acids 536-812 with 3 surface mutations W659A, W777A, F794H); His (C); Avi (biotinylated) (C); purchased BPS Bioscience 79498; host or cells: baculovirus expression system
Kind of assay: JAK2 LanthaScreen JH2-V617F Binding Assay. Conditions: JAK2 JH2-V617F (0.26 nM), 50 nM Fluorescent JAK2-JH2 Tracer, 1 hour at 25° C.; read-out: JH2 BIND V617F. The protocol:
Example C. JAK2 LanthaScreen JH2-V617F Binding Assay
as §1, with “JH2-V617F” for “JH2-WT”, “V617F mutant” for “Wild Type”, “#79498).” for “#79463).”, “JH2-V617F (0.26” for “JH2-WT (0.145”

T1 sequence (O60674 826-1132): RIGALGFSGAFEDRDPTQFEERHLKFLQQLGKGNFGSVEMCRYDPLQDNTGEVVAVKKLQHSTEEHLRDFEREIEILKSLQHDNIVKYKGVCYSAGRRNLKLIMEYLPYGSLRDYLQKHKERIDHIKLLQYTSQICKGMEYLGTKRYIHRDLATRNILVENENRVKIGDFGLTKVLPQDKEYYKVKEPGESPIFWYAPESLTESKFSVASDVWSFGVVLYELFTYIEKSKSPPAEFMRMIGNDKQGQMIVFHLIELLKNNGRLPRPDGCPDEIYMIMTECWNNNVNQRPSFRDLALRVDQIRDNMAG
T3 sequence (O60674 536-812 V617F/W659A/W777A/F794H): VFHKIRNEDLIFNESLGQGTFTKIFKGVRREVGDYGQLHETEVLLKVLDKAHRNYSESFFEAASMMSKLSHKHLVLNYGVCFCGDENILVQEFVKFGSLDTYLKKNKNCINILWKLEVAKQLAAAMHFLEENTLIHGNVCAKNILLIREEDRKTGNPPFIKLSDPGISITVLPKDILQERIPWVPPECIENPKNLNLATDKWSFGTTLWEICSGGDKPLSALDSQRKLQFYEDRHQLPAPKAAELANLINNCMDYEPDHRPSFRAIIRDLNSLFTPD
T2 sequence (O60674 536-812 W659A/W777A/F794H): as the sequence (O60674 536-812 V617F/W659A/W777A/F794H) above, with F82V counted along it

As for `CCOC(=O)N[C@H]1C[C@@H](n2c(=O)n(C)c3cnc4[nH]c(-c5cnn(C)c5)c(-c5ccc(C#N)cc5)c4c32)C1` [Example 105, Ethyl ((1S,3S)-3-(8-(4-cyanophenyl)-3-methyl-7-(1-methyl-1H-pyrazol-4-yl)-2-oxo-3,6-dihydroimidazo[4,5-d]pyrrolo[2,3-b]pyridin-1(2H)-yl)cyclobutyl)carbamate], the pIC50 in assay [1] was below 6.00; in assay [2], at least 8.00; in assay [3] it was at least 8.00.
Turning to `COc1ccc(-c2[nH]c3ncc4c(c3c2-c2ccc3c(cnn3C)c2)n(C(C)C)c(=O)n4C)cn1` [Example 62, 1-Isopropyl-7-(6-methoxypyridin-3-yl)-3-methyl-8-(1-methyl-1H-indazol-5-yl)-3,6-dihydroimidazo[4,5-d]pyrrolo[2,3-b]pyridin-2(1H)-one], the pIC50 in assay [1] was below 6.00; in assay [2], 7.00 to 8.00; in assay [3], 7.00 to 8.00.
In the case of `CN(CCCS(C)(=O)=O)Cc1ccc(-c2cc3c(ncc4c3n(-c3ccccc3)c(=O)n4C)[nH]2)cc1` [Example 7, 3-Methyl-7-(4-((methyl(3-(methylsulfonyl)propyl)amino)methyl)phenyl)-1-phenyl-3,6-dihydroimidazo [4,5-d]pyrrolo[2,3-b]pyridin-2(1H)-one], the pIC50 in assay [1] is 7.00 to 8.00; in assay [2], 6.30 to 7.00; in assay [3] it was 6.30 to 7.00.
On to `COc1ccc(-c2c(-c3ccc(CN4CCC(S(C)(=O)=O)CC4)cc3)[nH]c3ncc4c(c23)n(CC(C)C)c(=O)n4C)cc1` [Example 20, 1-Isobutyl-8-(4-methoxyphenyl)-3-methyl-7-(4-((4-(methylsulfonyl)piperidin-1-yl)methyl)phenyl)-3,6-dihydroimidazo [4,5-d]pyrrolo[2,3-b]pyridin-2(1H)-one], for which the pIC50 in assay [1] is 6.30 to 7.00; in assay [2] it was at least 8.00; in assay [3] it was at least 8.00.
`CC(C)n1c(=O)n(C)c2cnc3[nH]c(-c4cnn(C)c4)c(C4CCN(C(=O)Cc5ccc(S(C)(=O)=O)cc5)CC4)c3c21` [Example 107, 1-Isopropyl-3-methyl-7-(1-methyl-1H-pyrazol-4-yl)-8-(1-(2-(4-(methylsulfonyl)phenyl)acetyl)piperidin-4-yl)-3,6-dihydroimidazo[4,5-d]pyrrolo[2,3-b]pyridin-2(1H)-one]: the pIC50 in assay [1] is 6.30 to 7.00; in assay [2] it was 7.00 to 8.00; in assay [3] it was 7.00 to 8.00.
As to `CC(C)C(=O)c1[nH]c2ncc3c(c2c1-c1ccccc1)n(C)c(=O)n3C` [Example 43, 7-Isobutyryl-1,3-dimethyl-8-phenyl-3,6-dihydroimidazo [4,5-d]pyrrolo[2,3-b]pyridin-2(1H)-one], the pIC50 in assay [1], in assay [2] and in assay [3] was below 6.00 in each case.
For `Cn1c(=O)n(C2CCCC2)c2c3c(-c4cc5cnccc5s4)c(C4CC4)[nH]c3ncc21` [Example 71, 1-Cyclopentyl-7-cyclopropyl-3-methyl-8-(thieno[3,2-c]pyridin-2-yl)-3,6-dihydroimidazo[4,5-d]pyrrolo[2,3-b]pyridin-2(1H)-one], the pIC50 in assay [1] is 6.00 to 6.30; in assay [2], at least 8.00; in assay [3], 7.00 to 8.00.
Taken in the same sequence, the figures for `CC(C)n1c(=O)n(C)c2cnc3[nH]c(-c4cnn(CC(C)(C)O)c4)c(-c4ccn5cncc5c4)c3c21` [Example 85, 7-(1-(2-Hydroxy-2-methylpropyl)-1H-pyrazol-4-yl)-8-(imidazo[1,5-a]pyridin-7-yl)-1-isopropyl-3-methyl-3,6-dihydroimidazo[4,5-d]pyrrolo[2,3-b]pyridin-2(1H)-one] were below 6.00, at least 8.00 and 7.00 to 8.00.
Taken in the same sequence, the figures for `Cn1ncc2cc(-c3c(-c4cnn5c4CCC5)[nH]c4ncc5c(c34)n(C3CCOCC3)c(=O)n5C)ccc21` [Example 92, 7-(5,6-Dihydro-4H-pyrrolo[1,2-b]pyrazol-3-yl)-3-methyl-8-(1-methyl-1H-indazol-5-yl)-1-(tetrahydro-2H-pyran-4-yl)-3,6-dihydroimidazo[4,5-d]pyrrolo[2,3-b]pyridin-2(1H)-one] were below 6.00, at least 8.00 and at least 8.00.
For the compound `CC(C)n1c(=O)n(C)c2cnc3[nH]c(-c4cnn(CC(C)(C)O)c4)c(-c4ccc5ncsc5c4)c3c21` [Example 78, 8-(Benzo[d]thiazol-6-yl)-7-(1-(2-hydroxy-2-methylpropyl)-1H-pyrazol-4-yl)-1-isopropyl-3-methyl-3,6-dihydroimidazo[4,5-d]pyrrolo[2,3-b]pyridin-2(1H)-one], the pIC50 was below 6.00 in assay [1], 7.00 to 8.00 in assay [2] and 7.00 to 8.00 in assay [3].
On to `CS(=O)(=O)C1CCN(Cc2ccc(-c3cc4c(ncc5c4n(-c4ccccc4)c(=O)n5CCO)[nH]3)cc2)CC1` [Example 5, 3-(2-Hydroxyethyl)-7-(4-((4-(methylsulfonyl)piperidin-1-yl)methyl)phenyl)-1-phenyl-3,6-dihydroimidazo[4,5-d]pyrrolo[2,3-b]pyridin-2(1H)-one], for which the pIC50 was 6.30 to 7.00 in assay [1], below 6.00 in assay [2] and below 6.00 in assay [3].
As for `CC(C)n1c(=O)n(C)c2cnc3[nH]c(-c4cnn(CC(C)(C)O)c4)c(-c4cc5c(s4)CCN(S(C)(=O)=O)C5)c3c21` [Example 83, 7-(1-(2-Hydroxy-2-methylpropyl)-1H-pyrazol-4-yl)-1-isopropyl-3-methyl-8-(5-(methylsulfonyl)-4,5,6,7-tetrahydrothieno[3,2-c]pyridin-2-yl)-3,6-dihydroimidazo[4,5-d]pyrrolo[2,3-b]pyridin-2(1H)-one], the pIC50 in assay [1] is below 6.00; in assay [2], at least 8.00; in assay [3] it was 7.00 to 8.00.
On the same counts, the results for `Cn1c(=O)n(C)c2c3c(-c4ccccc4)c(CCO)[nH]c3ncc21` [Example 42, 7-(2-Hydroxyethyl)-1,3-dimethyl-8-phenyl-3,6-dihydroimidazo[4,5-d]pyrrolo[2,3-b]pyridin-2(1H)-one] are below 6.00, below 6.00 and below 6.00.
Taken in the same sequence, the figures for `CCn1c(=O)n(C2CCCC2)c2c3cc(-c4ccc(CN5CCC(S(C)(=O)=O)CC5)cc4)[nH]c3ncc21` [Example 13, 1-Cyclopentyl-3-ethyl-7-(4-((4-(methylsulfonyl)piperidin-1-yl)methyl)phenyl)-3,6-dihydroimidazo[4,5-d]pyrrolo[2,3-b] pyridin-2(1H)-one] were 6.30 to 7.00, below 6.00 and below 6.00.

For the origin of these results see patent US11780840B2 (Incyte Corporation, priority 2020, dated 2023).
